Source: patent US20220031697A1, “Dose and regimen for an hdm2-p53 interaction inhibitor in hematological tumors” (Novartis AG, priority 2017, published 2022)
Like-named read-outs stand apart in the source and are kept apart here.

Experiments:
[1] = system: advanced TP53 wild-type (WT) leukemias; type: in vivo, human
[2] = system: human HSAX2655 (liposarcoma) PDX; assay: TGI PK/PD modelling, PDX rat; type: in vivo
Clinical PK = type: in vivo, human
Procedure: Pharmacokinetic data have been evaluated throughout the course of the clinical study. […] Furthermore, an integrated analysis of all available HDM201 concentrations was conducted using a population approach. The PK of HDM201 was best described by a 1-compartment PK model with a delayed zero- and first-order absorption process, and a linear clearance. Body weight was identified as a statistically significant covariate on apparent central volume of distribution (Vc/F), in which Vc/F increased with increasing body weight.
To further support the 45 mg for HDM201, compartmental PK modeling was used to estimate the individual average concentration during cycle 1 for patients with hematological tumors treated at 45 mg on regimen 2C (FIG. 2). For all patients with measured PK, the estimated average drug concentrations during cycle 1 were above the most conservative average tumor stasis concentration of about 41 ng/mL per cycle determined from PKPD modeling of preclinical data (human SJSA-1 xenograft rat model).

[3] = Regimen 1A 250 mg, cut-off 15 Jan. 2018
[4] = Regimen 1A 250 mg, n=10, cut-off 15 Jan. 2018
[5] = Regimen 1B 120 mg, n=23, cut-off 15 Jan. 2018
[6] = Regimen 2C 45 mg, n=25, cut-off 15 Jan. 2018

SMILES: COc1ncc(-c2nc3c(n2C(C)C)[C@H](c2ccc(Cl)cc2)N(c2cc(Cl)cn(C)c2=O)C3=O)c(OC)n1 [HDM201, (S)-5-(5-Chloro-1-methyl-2-oxo-1,2-dihydro-pyridin-3-yl)-6-(4-chloro-phenyl)-2-(2,4-dimethoxy-pyrimidin-5-yl)-1-isopropyl-5,6-dihydro-1H-pyrrolo[3,4-d]imidazol-4-one]
- Count recovery time from C1D1 ([1]; CR patient, 1A 250 mg): 48 days
- Duration of CR/CRi ([1]; CR patient, 1A 250 mg): 50 days
- Time to CR/CRi ([1]; CR patient, 1A 250 mg): 7 weeks
- Count recovery time from C1D1 ([1]; CR patient, 1A 400 mg): 40 days
- Duration of CR/CRi ([1]; CR patient, 1A 400 mg): 23 days
- Time to CR/CRi ([1]; CR patient, 1A 400 mg): 6 weeks
- Count recovery time from C1D1 ([1]; CR patient, 2C 45 mg): 32 days
- Duration of CR/CRi ([1]; CR patient, 2C 45 mg): 152 days
- Time to CR/CRi ([1]; CR patient, 2C 45 mg): 5 weeks
- Duration of CR/CRi ([1]; CRi patient, 1B 150 mg): 51 days
- Time to CR/CRi ([1]; CRi patient, 1B 150 mg): 11 weeks
- Duration of CR/CRi [1, 3]: 50 to 125 days
- Time to CR/CRi [1, 3]: 24 to 50 days
- CR (patients) [1, 4]: 1
- CRi (patients) [1, 4]: 1
- BOR: CR ([1]; Regimen 1A (n = 15)): 2 (13) n (%)
- BOR: CRi ([1]; Regimen 1A (n = 15)): 0 (0) n (%)
- ORR (CR + CRi + PR) ([1]; Regimen 1A (n = 15)): 2 (13) n (%)
- Duration of CR/CRi ([1]; Regimen 1B 120 mg, DoR censored, cut-off 15 Jan. 2018): 1 day (DoR
- Time to CR/CRi ([1]; Regimen 1B 120 mg, cut-off 15 Jan. 2018): 30 days
- CR (patients) [1, 5]: 1
- CRi (patients) [1, 5]: 0
- BOR: CR ([1]; Regimen 1B (n = 6)): 0 (0) n (%)
- BOR: CRi ([1]; Regimen 1B (n = 6)): 1 (17) n (%)
- ORR (CR + CRi + PR) ([1]; Regimen 1B (n = 6)): 1 (17) n (%)
- Clinical activity ([1]; Regimen 2A (2 weeks on/2 week off), doses up to 30 mg): without evidence of clinically meaningful activity
- BOR: CR ([1]; Regimen 2A (n = 7)): 0 (0) n (%)
- BOR: CRi ([1]; Regimen 2A (n = 7)): 0 (0) n (%)
- ORR (CR + CRi + PR) ([1]; Regimen 2A (n = 7)): 0 (0) n (%)
- Count recovery time of the patient with CR ([1]; Regimen 2C 45 mg): 32 days
- Overall response rate ([1]; Regimen 2C 45 mg, 7 patients with post-baseline assessment): 57.1%
- Time to CR/CRi ([1]; Regimen 2C 45 mg, cut-off 15 Jan. 2018): 34 to 49 days
- CR (patients) [1, 6]: 2
- CRi (patients) [1, 6]: 4
- Duration of CRi ([1]; Regimen 2C 45 mg, one of three CRi patients): 40 days
- Duration of complete response ([1]; Regimen 2C 45 mg, one patient): 152 days
- BOR: CR ([1]; Regimen 2C (n = 7)): 1 (14) n (%)
- BOR: CRi ([1]; Regimen 2C (n = 7)): 3 (43) n (%)
- ORR (CR + CRi + PR) ([1]; Regimen 2C (n = 7)): 4 (57) n (%)
- Best percentage change in blast percentage in bone marrow (BM) aspirate ([1]; Regimen 2C, AML patients, FIG. 1): strong efficacy
- BOR: CR ([1]; Total (N = 35)): 3 (9) n (%)
- BOR: CRi ([1]; Total (N = 35)): 4 (11) n (%)
- ORR (CR + CRi + PR) ([1]; Total (N = 35)): 7 (20) n (%)
- Average concentration for tumor stasis [2]: 19 ng/mL
- Estimated average drug concentration during cycle 1 (Clinical PK; 45 mg regimen 2C, all patients with measured PK, compartmental PK modeling): > 41 ng/mL
- Dose proportionality of PK (AUClast and Cmax) (Clinical PK; over the dose range studied, preliminary assessment): approximately dose proportional
